Results on 25 compounds are retold here after patent US20240335420A1, “N-ACYLHYDRAZONE COMPOUNDS CAPABLE OF INHIBITING NAV 1.7 AND/OR NAV 1.8, PROCESSES FOR THE PREPARATION THEREOF, COMPOSITIONS, USES, METHODS FOR TREATMENT USING SAME AND KITS” (EUROFARMA LABORATÓRIOS S.A., priority 2021, published 2024).

In experiment [1] the target is human sodium channels Nav 1.8 (Homo sapiens (Human), UniProt Q9Y5Y9). Nature of the experiment: Automated whole-cell voltage-clamp (ScreenPatch 384P), Nav 1.8 sodium current, Protocol 1. Format: cell-based. To be noted: CHO cells expressing human Nav 1.8; for IC50: Protocol 1 (holding −90 mV, 0.1 Hz), room temperature, read-out: Nav1.8 IC50; for inhibition at 10 µM: Protocol 1, read-out: Nav1.8 percent of inhibition (IC50 value not available). The protocol: (§1) Biological assays were performed on Chinese hamster ovary (CHO) cells expressing the human sodium channels Nav 1.8 and Nav 1.7 stably.
Chain of human sodium channels Nav 1.8 (Q9Y5Y9 whole entry): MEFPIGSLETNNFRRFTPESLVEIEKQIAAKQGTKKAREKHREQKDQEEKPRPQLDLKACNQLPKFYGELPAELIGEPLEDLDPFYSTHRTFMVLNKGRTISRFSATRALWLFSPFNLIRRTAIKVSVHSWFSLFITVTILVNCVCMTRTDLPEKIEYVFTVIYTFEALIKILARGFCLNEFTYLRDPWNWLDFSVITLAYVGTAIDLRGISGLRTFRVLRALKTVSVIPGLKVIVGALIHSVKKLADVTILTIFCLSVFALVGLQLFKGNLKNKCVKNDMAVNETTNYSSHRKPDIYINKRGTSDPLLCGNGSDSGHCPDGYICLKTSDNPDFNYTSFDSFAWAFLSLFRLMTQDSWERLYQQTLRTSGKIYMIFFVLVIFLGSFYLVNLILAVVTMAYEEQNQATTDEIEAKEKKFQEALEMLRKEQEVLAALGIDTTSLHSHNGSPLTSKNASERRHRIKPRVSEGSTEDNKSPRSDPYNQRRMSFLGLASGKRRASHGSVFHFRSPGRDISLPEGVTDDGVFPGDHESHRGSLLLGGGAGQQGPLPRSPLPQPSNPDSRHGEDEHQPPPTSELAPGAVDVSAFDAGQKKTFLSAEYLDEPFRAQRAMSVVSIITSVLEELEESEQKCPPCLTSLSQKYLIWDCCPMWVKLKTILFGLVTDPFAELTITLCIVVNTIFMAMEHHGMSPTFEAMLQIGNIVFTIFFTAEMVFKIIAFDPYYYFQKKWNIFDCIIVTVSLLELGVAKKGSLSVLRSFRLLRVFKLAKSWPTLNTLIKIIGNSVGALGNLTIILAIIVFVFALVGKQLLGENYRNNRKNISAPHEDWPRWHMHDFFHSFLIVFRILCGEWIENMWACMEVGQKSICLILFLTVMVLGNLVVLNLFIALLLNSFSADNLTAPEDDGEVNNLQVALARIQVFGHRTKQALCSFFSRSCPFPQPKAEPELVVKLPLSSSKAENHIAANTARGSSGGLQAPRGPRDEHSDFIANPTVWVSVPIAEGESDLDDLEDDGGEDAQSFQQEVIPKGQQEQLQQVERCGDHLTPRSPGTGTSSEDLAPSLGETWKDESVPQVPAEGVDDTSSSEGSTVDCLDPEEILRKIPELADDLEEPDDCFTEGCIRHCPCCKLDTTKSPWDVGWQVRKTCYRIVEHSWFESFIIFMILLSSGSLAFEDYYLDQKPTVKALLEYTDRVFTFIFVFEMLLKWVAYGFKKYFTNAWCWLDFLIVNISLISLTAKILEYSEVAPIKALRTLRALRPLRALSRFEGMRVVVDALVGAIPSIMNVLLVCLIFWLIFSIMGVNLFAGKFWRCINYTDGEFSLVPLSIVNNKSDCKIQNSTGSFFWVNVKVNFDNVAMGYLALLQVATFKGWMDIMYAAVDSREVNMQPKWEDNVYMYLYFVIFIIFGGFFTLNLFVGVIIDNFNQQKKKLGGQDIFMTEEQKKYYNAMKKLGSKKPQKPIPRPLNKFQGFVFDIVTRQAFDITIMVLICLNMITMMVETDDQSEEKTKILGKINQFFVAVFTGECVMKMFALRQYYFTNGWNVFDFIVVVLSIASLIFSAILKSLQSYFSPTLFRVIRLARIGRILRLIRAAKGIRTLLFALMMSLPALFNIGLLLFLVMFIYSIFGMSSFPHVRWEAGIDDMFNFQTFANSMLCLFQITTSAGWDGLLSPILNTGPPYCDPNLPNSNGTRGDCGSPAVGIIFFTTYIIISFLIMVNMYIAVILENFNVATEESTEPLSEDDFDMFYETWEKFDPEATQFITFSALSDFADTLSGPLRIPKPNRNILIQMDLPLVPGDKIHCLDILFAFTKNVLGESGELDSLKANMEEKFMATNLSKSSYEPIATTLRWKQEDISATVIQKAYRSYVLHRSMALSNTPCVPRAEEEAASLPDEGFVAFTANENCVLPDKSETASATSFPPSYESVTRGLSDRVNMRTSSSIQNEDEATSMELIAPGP
(§2) The experimental voltage-clamp protocol using the whole cell configuration was established on the automated ScreenPatch® 384P platform (SP384PE, Nanion Technologies, Livingston, NJ) and recording of the results was performed with a Nanion 384-well Patch Clamp chip (NPC) (Nanion Technologies, Livingston, NJ).
(§3) Compounds of Formula (I), were diluted in eight concentrations in the extracellular solution composed of physiological saline, buffered with HEPES (mM): NaCl, 137; KCl, 4; CaCl2, 3.8; MgCl2, 1; HEPES, 10; Glucose, 10; pH 7.4. The […], 50; CsF, 90; MgCl2, 5; EGTA, 5; HEPES, 10; pH 7.2. The duration of exposure of each compound with the cells expressing Nav 1.7 or Nav 1.8 was at least five minutes and the assays were performed at room temperature.
(§4) The measurements of the sodium currents of Nav 1.8 and Nav 1.7 were obtained using the voltage protocols described below: • Protocol 1: A holding voltage of −90 mV was established followed by a voltage phase of 200 ms to −120 mV, followed by a voltage step of 10 mV for 1 second for Nav 1.8 or 0 mV for Nav 1.7, followed by a step of −100 mV for 20 ms, followed by a step of 20 ms for 10 mV for Nav 1.8 or 0 mV for Nav 1.7 (TP1A) before returning to the holding voltage of −90 mV. • Protocol 2: A holding voltage of −100 mV was established followed by an inactivation voltage step at −40 mV for 8 seconds, followed by a −100 mV step for […], followed by a 20 ms step for 10 mV for Nav 1.8 or 0 mV for Nav 1.7 (TP1A) before returning to the holding voltage of −100 mV.
(§5) Protocols were repeated at a frequency of 0.1 Hz (Protocol 1) or 0.05 Hz (Protocol 2) and current amplitude was quantified over the TP1A phase log. The variation in the peak amplitude of the current was evaluated according to the Formula described below, after exposure of the cells expressing the channels, at each concentration of the different compounds:
(§6) [formula] • where |TP1A, basal, and |TP1A, molecule represent the entry peaks of sodium currents into TP1A prior to exposure to the compound and in the presence of the compound, respectively.
(§7) The decrease in peak current amplitude, after exposure of the cells to the compounds, was used to calculate the percent relative blocking of the channels relative to the positive control according to the Formula below:
(§8) [formula] • where % V and % CP represent the averages of the values of current inhibition with a vehicle (DMSO) and positive controls, respectively. The sodium currents of the positive control were considered as 100%.
(§9) [formula] • where [Test] represents the concentration of the evaluated molecule, IC50 is the concentration of the compound that generates half of the maximum inhibition, N is the Hill's coefficient and % Block′ is the percentage of the sodium channel current (Nav 1.8 and Nav 1.7) inhibited at each concentration of the evaluated molecule. Data were obtained by non-linear least squares regression with XLfit for Excel (Microsoft, Redmond, WA).
(§10) Compounds were tested in at least one assay to obtain the IC50 value.

Experiment [2] has as its target human sodium channels Nav 1.7 (Homo sapiens (Human), UniProt Q15858). Nature of the experiment: Automated whole-cell voltage-clamp (ScreenPatch 384P), Nav 1.7 sodium current, Protocol 1. Type of experiment: cell-based. To be noted: CHO cells expressing human Nav 1.7; for IC50: Protocol 1 (holding −90 mV, 0.1 Hz), room temperature, read-out: Nav1.7 IC50; for inhibition at 10 µM: Protocol 1, read-out: Nav1.7 percent of inhibition (IC50 value not available). The method, then: as §1, §2, §3, §4, §5, §6, §7, §8, §9, §10

Chain of human sodium channels Nav 1.7 (Q15858 whole entry): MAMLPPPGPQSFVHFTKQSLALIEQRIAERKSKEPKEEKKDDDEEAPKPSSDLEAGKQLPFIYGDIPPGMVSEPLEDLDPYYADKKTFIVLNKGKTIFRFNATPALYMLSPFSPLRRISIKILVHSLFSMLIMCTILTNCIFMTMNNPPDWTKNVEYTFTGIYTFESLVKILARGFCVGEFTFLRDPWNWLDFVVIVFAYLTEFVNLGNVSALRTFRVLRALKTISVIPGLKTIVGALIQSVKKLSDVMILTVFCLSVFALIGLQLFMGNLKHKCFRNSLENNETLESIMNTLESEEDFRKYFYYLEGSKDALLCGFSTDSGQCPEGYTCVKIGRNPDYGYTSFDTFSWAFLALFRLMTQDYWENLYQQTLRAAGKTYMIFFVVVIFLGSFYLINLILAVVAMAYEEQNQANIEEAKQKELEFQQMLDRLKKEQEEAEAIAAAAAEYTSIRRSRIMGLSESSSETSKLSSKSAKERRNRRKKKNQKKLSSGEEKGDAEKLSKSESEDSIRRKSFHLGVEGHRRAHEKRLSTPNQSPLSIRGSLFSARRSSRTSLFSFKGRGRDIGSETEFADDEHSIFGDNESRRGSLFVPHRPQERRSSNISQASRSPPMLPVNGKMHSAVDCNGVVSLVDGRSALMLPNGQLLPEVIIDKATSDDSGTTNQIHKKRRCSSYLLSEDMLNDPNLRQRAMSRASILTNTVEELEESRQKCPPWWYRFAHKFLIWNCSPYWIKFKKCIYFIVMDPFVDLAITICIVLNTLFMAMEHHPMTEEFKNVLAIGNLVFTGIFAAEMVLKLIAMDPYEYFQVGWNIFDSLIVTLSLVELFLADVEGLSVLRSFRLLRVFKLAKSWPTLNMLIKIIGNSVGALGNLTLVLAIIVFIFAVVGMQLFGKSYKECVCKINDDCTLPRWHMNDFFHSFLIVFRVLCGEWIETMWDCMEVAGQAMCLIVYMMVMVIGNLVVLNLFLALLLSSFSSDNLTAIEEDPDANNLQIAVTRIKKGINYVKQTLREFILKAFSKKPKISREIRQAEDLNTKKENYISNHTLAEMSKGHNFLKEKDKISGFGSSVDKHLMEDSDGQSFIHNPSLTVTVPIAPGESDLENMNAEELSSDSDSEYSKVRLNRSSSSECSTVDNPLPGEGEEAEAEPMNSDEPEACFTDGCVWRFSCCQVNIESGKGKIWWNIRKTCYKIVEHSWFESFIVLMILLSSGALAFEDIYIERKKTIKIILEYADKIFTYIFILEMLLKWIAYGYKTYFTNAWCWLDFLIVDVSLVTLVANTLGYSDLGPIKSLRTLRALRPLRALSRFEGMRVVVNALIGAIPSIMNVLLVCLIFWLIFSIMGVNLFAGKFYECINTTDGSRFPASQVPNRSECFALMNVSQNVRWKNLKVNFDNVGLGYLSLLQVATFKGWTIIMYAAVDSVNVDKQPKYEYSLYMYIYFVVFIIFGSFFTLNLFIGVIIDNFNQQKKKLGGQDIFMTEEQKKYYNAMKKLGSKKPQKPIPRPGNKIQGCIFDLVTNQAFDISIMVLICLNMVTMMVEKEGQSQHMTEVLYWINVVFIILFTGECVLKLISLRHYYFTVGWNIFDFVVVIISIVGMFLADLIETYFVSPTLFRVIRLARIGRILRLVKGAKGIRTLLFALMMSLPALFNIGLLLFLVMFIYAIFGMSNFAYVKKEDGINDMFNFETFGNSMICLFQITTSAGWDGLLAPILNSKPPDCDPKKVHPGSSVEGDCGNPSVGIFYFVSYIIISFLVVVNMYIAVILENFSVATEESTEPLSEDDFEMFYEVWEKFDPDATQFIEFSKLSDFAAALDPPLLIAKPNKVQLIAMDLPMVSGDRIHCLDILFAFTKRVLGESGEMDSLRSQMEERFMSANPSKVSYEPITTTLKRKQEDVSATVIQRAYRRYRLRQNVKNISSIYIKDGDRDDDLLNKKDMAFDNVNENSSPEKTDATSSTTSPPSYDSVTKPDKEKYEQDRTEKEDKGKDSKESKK

On to `CCCOc1ccc(-c2cncc(C(=O)N/N=C/c3cc(OC)cc(OC)c3)c2)cc1` [Compound 26, (E)-N′-(3,5-dimethoxybenzylidene)-5-(4-propoxyphenyl) nicotinohydrazide], for which the IC50 is above 10 µM in experiment [1] and 3.5 µM in experiment [2].
With `CCOc1ccc(-c2cccc(C(=O)N(C)/N=C/c3cc(OC)cc(OC)c3)n2)cc1` [Compound 79, (E)-N′-(3,5-dimethoxybenzylidene)-6-(4-ethoxyphenyl)-N′-methylpicolinohydrazide], the IC50 in experiment [1] and in experiment [2] was above 10 µM in each case.
Regarding `CCOc1ccc(-c2cccc(C(=O)N/N=C/c3cccs3)n2)cc1` [Compound 12, (E)-6-(4-ethoxyphenyl)-N′-(thiophen-2-ylmethylene) picolinohydrazide], the IC50 turned out to be 3.21 µM in experiment [1] and 1.89 µM in experiment [2].
The like results for `COc1cc(/C=N/NC(=O)c2cncc(-c3ccc(OC(F)(F)F)cc3)c2)cc(OC)c1` [Compound 17, (E)-N′-(3,5-dimethoxybenzylidene)-5-(4-(trifluoromethoxy)phenyl) nicotinohydrazide] were, in that order, 6.83 µM and 7.09 µM.
For `COc1cc(/C=N/NC(=O)c2ccc(-c3ccc(Cl)cc3)o2)cc(OC)c1` [Compound 2, (E)-5-(4-chlorophenyl)-N′-(3,5-dimethoxybenzylidene) furan-2-carbohydrazide], the IC50 in experiment [1] and in experiment [2] was above 30 µM throughout.
For the compound `COc1cc(/C=N/NC(=O)c2ccnc(-c3ccc(Cl)cc3)n2)cc(OC)c1` [Compound 52, (E)-2-(4-chlorophenyl)-N′-(3,5-dimethoxybenzylidene)pyrimidine-4-carbohydrazide], the IC50 in experiment [1] and in experiment [2] was above 10 µM each time.
Consider `CCOc1ccc(-c2cccc(C(=O)N/N=C/c3cccnc3N3CCOCC3)n2)cc1` [Compound 37, (E)-6-(4-ethoxyphenyl)-N′-((2-morpholinopyridin-3-yl)methylene) picolinohydrazide], for which the IC50 was above 10 µM in experiment [1] and 8.76 µM in experiment [2].
The like results for `COc1cc(/C=N/NC(=O)c2cncc(-c3ccc(Cl)cc3)c2)cc(OC)c1` [Compound 16, (E)-5-(4-chlorophenyl)-N′-(3,5-dimethoxybenzylidene) nicotinohydrazide] were, in that order, 4.25 µM and 4.12 µM.
Consider `CCOc1ccc(-c2ccc(C(=O)N/N=C/c3cccnc3)o2)cc1` [Compound 6, (E)-5-(4-ethoxyphenyl)-N′-(pyridin-3-ylmethylene) furan-2-carbohydrazide], for which the inhibition at 10 µM in experiment [1] and in experiment [2] was below 10% throughout.
`COc1cc(/C=N/NC(=O)c2cncc(-c3ccc(OC(C)C)cc3)c2)cc(OC)c1` [Compound 19, (E)-N′-(3,5-dimethoxybenzylidene)-5-(4-isopropoxyphenyl) nicotinohydrazide]: the IC50 is 5.9 µM in experiment [1] and 5.72 µM in experiment [2].
The like results for `CCOc1ccc(-c2cc(C(=O)N/N=C/c3cc(OC)cc(OC)c3)ccn2)cc1` [Compound 22, (E)-N′-(3,5-dimethoxybenzylidene)-2-(4-ethoxyphenyl) isonicotinohydrazide] were, in that order, above 10 µM and above 10 µM.
Take `COc1cc(/C=N/NC(=O)c2cccc(-c3ccc(OC(C)C)cc3)n2)cc(OC)c1` [Compound 24, (E)-N′-(3,5-dimethoxybenzylidene)-6-(4-isopropoxyphenyl) picolinohydrazide]: the values for the IC50 in experiment [1] and in experiment [2] were 5.9 µM and 5.72 µM, respectively.
For the compound `CCOc1ccc(-c2ccc(C(=O)N/N=C/c3cccs3)o2)cc1` [Compound 3, (E)-5-(4-ethoxyphenyl)-N′-(thiophen-2-ylmethylene) furan-2-carbohydrazide], the IC50 in experiment [1] and in experiment [2] was above 30 µM in each case.
In the case of `CCCCOc1ccc(-c2cncc(C(=O)N/N=C/c3cc(OC)cc(OC)c3)c2)cc1` [Compound 27, (E)-5-(4-butoxyphenyl)-N′-(3,5-dimethoxybenzylidene) nicotinohydrazide], the IC50 in experiment [1] and in experiment [2] was above 10 µM each time.
`CCOc1ccc(-c2cccc(C(=O)N/N=C/c3c(F)cccc3Cl)n2)cc1` [Compound 35, (E)-N′-(2-chloro-6-fluorobenzylidene)-6-(4-ethoxyphenyl) picolinohydrazide]: the IC50 in experiment [1] and in experiment [2] was above 10 µM throughout.
On to `CC(C)Oc1ccc(-c2ccc(C(=O)N/N=C/c3cc(CN(C)C)cs3)o2)cc1` [Compound 8, (E)-N′-((4-((dimethylamino)methyl)thiophen-2-yl)methylene)-5-(4-isopropoxyphenyl) furan-2-carbohydrazide], for which the inhibition at 10 µM in experiment [1] and in experiment [2] was below 10% in each case.
On to `CCCOc1ccc(-c2nccc(C(=O)N/N=C/c3cc(OC)cc(OC)c3)n2)cc1` [Compound 58, (E)-N′-(3,5-dimethoxybenzylidene)-2-(4-propoxyphenyl)pyrimidine-4-carbohydrazide], for which the concentration for half-maximal inhibition (IC50) in experiment [1] and in experiment [2] was above 10 µM each time.
As to `O=C(N/N=C/c1cccs1)c1cc(-c2ccc(OC3CCCC3)cc2)ccn1` [Compound 50, (E)-4-(4-(cyclopentyloxy)phenyl)-N′-(thiophen-2-ylmethylene) picolinohydrazide], the IC50 in experiment [1] and in experiment [2] was above 10 µM in each case.
Turning to `CCCCOc1ccc(-c2ccnc(C(=O)N/N=C/c3cc(OC)cc(OC)c3)n2)cc1` [Compound 67, (E)-4-(4-butoxyphenyl)-N′-(3,5-dimethoxybenzylidene)pyrimidine-2-carbohydrazide], the IC50 in experiment [1] and in experiment [2] was above 10 µM throughout.
Turning to `CC(C)Oc1ccc(-c2cccc(C(=O)N/N=C/c3cccs3)n2)cc1` [Compound 13, (E)-6-(4-isopropoxyphenyl)-N′-(thiophen-2-ylmethylene) picolinohydrazide], the inhibition at 10 µM in experiment [1] and in experiment [2] was below 10% throughout.
On to `CCOc1ccc(-c2nccc(C(=O)N/N=C/c3cc(OC)cc(OC)c3)n2)cc1` [Compound 53, (E)-N′-(3,5-dimethoxybenzylidene)-2-(4-ethoxyphenyl)pyrimidine-4-carbohydrazide], for which the IC50 in experiment [1] and in experiment [2] was above 10 µM in each case.
For the compound `COc1cc(/C=N/NC(=O)c2cc(-c3ccc(Cl)cc3)ccn2)cc(OC)c1` [Compound 42, (E)-4-(4-chlorophenyl)-N′-(3,5-dimethoxybenzylidene) picolinohydrazide], the IC50 in experiment [1] and in experiment [2] was above 10 µM throughout.
Take `CCOc1ccc(-c2cccc(C(=O)N/N=C/c3ccccc3Cl)n2)cc1` [Compound 33, (E)-N′-(2-chlorobenzylidene)-6-(4-ethoxyphenyl) picolinohydrazide]: the IC50 in experiment [1] and in experiment [2] was above 10 µM throughout.
`CCOc1ccc(-c2cncc(C(=O)N/N=C/c3cc(OC)cc(OC)c3)c2)cc1` [Compound 18, (E)-N′-(3,5-dimethoxybenzylidene)-5-(4-ethoxyphenyl) nicotinohydrazide]: the IC50 was determined as 6.83 µM in experiment [1] and 7.09 µM in experiment [2].
The corresponding values for `COc1ccc(-c2nccc(C(=O)N/N=C/c3cc(OC)cc(OC)c3)n2)cc1` [Compound 57, (E)-N′-(3,5-dimethoxybenzylidene)-2-(4-methoxyphenyl)pyrimidine-4-carbohydrazide] are above 10 µM and above 10 µM.

One may read the IC50 as the concentration that gives 50% inhibition. As usually defined, the inhibition is the relative decrease from the control value, in per cent.
